Data published in patent publication US11807625B2, “Capsid inhibitors for the prevention of HIV” (Gilead Sciences, Inc., priority 2019, dated 2023).

Experiment: PK of compound of Formula (Ia) after single subcutaneous dose of solution formulations in Wistar Han rats
Assay type: in vivo
Details: male, Wistar Han, rat, plasma, sc, 50 mg/kg, Wistar Han rats, SC 50 mg/kg
Procedure: Formulations containing the compound of Formula (Ia), or a pharmaceutically acceptable salt thereof, were prepared as solutions and optionally administered subcutaneously or intramuscularly to rats, rabbits, and/or dogs.
A solution of about 400 mg/mL of the compound of Formula (Ia) having 19.14 w/w % water, 40.66 w/w % PEG 300, 35.20 w/w % of a sodium salt of a compound of Formula (Ia), and 5.00% ethanol was prepared. The solution was administered subcutaneously to male Wistar Han rats at a dose level of about 50 mg/kg and dose volume of 0.125 mL/kg and the pharmacokinetic (PK) profile was determined.
A solution of about 500 mg/mL of the compound of Formula (Ia) having 16.64 w/w % water, 35.36 w/w % PEG 300, 43.00 w/w % of a sodium salt of a compound of Formula (Ia), and 5.00% ethanol was prepared. The solution was administered subcutaneously to male Wistar Han rats at a dose level of about 50 mg/kg and dose volume of 0.1 mL/kg and the pharmacokinetic (PK) profile was determined.
A solution of about 400 mg/mL of the compound of Formula (Ia) having 17.00 w/w % water, 36.40 w/w % PEG 300, 35.20 w/w % of a sodium salt of a compound of Formula (Ia), 5.00 w/w % ethanol, and 6.40 w/w % poloxamer 188 was prepared. The solution was administered subcutaneously to male beagle dogs at a dose level of about 12 mg/kg and male Wistar Han rats at a dose level of about 50 mg/kg. The pharmacokinetic profiles were determined, and the results for dogs are summarized in Table and Table, while the results for rats are summarized in Table and Table below.
A solution of about 500 mg/mL of the compound of Formula (Ia) having 14.06 w/w % water, 30.12 w/w % PEG 300, […] of a sodium salt of a compound of Formula (Ia), 5.00 w/w % ethanol, and 6.40 w/w % poloxamer 188 was prepared. The solution was administered subcutaneously to male beagle dogs at a dose level of about 12 mg/kg and male Wistar Han rats at a dose level of about 50 mg/kg. The pharmacokinetic profiles were determined, and the results for dogs are summarized in Table and Table, while the results for rats are summarized in Table and Table below.
A solution of about 300 mg/mL of the compound of Formula (Ia) having 23.33 w/w % water, 48.99 w/w % PEG 300, 26.47 w/w % of a sodium salt of a compound of Formula (Ia), and 1.21 w/w % poloxamer 188 was prepared. The solution was administered subcutaneously to male beagle dogs at a dose level of about 6 mg/kg and male Wistar Han rats at a dose level of about 50 mg/kg. The pharmacokinetic profiles were determined, and the results for dogs are summarized in Table and Table, while the results for rats are summarized in Table and Table below.
A solution of about 400 mg/mL of the compound of Formula (Ia) having 18.80 w/w % water, 40.25 w/w % PEG 300, 34.38 w/w % of a sodium salt of a compound of Formula (Ia), 5.00 w/w % ethanol, and 1.57 w/w % poloxamer 188 was prepared. The solution was administered subcutaneously to male beagle dogs at a dose level of about 12 mg/kg and male Wistar Han rats at a dose level of about 50 mg/kg. The pharmacokinetic profiles were determined, and the results for dogs are summarized in Table and Table, while the results for rats are summarized in Table and Table below.
A solution of about 500 mg/mL of the compound of Formula (Ia) having 16.29 w/w % water, 34.88 w/w % PEG 300, 41.92 w/w % of a sodium salt of a compound of Formula (Ia), 5.00 w/w % ethanol, and 1.91 w/w % poloxamer 188 was prepared. The solution was administered subcutaneously to male beagle dogs at a dose level of about 12 mg/kg and male Wistar Han rats at a dose level of about 50 mg/kg. The pharmacokinetic profiles were determined, and the results for dogs are summarized in Table and Table, while the results for rats are summarized in Table and Table below.
A solution of about 400 mg/mL of the compound of Formula (Ia) having 20.90 w/w % water, 44.72 w/w % PEG 300, and 34.38 w/w % of a sodium salt of a compound of Formula (Ia) was prepared. […]

[1] = 400 mg/mL solution AA (6.25% poloxamer 188), Mean n = 4
[2] = 400 mg/mL solution W (5.00% ethanol, 1.57% poloxamer 188), Mean n = 3
[3] = 400 mg/mL solution W (5.00% ethanol, 1.57% poloxamer 188), animals #1-#3
[4] = 400 mg/mL solution Y (water, PEG 300), Mean n = 4
[5] = 400 mg/mL solution Y (water, PEG 300), animals #1-#4
[6] = 400 mg/mL solution Z (3.13% poloxamer 188), Mean n = 4
[7] = 400 mg/mL solution Z (3.13% poloxamer 188), animals #1-#4
[8] = 400 mg/mL solution Z (3.13% poloxamer 188), Mean (#2 NS)
[9] = 400 mg/mL solution Z (3.13% poloxamer 188), animals #1, #3, #4 (#2 NS)
[10] = 500 mg/mL solution X (5.00% ethanol, 1.91% poloxamer 188), Mean n = 3
[11] = 500 mg/mL solution X (5.00% ethanol, 1.91% poloxamer 188), animals #1-#3

CC(C)(C#Cc1ccc(-c2ccc(Cl)c3c(NS(C)(=O)=O)nn(CC(F)(F)F)c23)c([C@H](Cc2cc(F)cc(F)c2)NC(=O)Cn2nc(C(F)(F)F)c3c2C(F)(F)[C@@H]2C[C@H]32)n1)S(C)(=O)=O [compound of Formula (Ia)]
concentration at 2016 h [1]: 78.2 nM | concentration at 2352 h [1]: 75.4 nM | concentration at 2688 h [1]: 74.6 nM | concentration at 3024 h [1]: 69.8 nM | concentration at 3360 h [1]: 64.1 nM | concentration at 3696 h [1]: 65.7 nM | concentration at 1 h [2]: 30.6 nM | concentration at 3 h [2]: 53.4 nM | concentration at 8 h [2]: 76.9 nM | concentration at 24 h [2]: 120 nM | concentration at 24 h [3]: 127 nM | concentration at 48 h [2]: 152 nM | concentration at 48 h [3]: 128 nM | concentration at 72 h [2]: 152 nM | concentration at 72 h [3]: 112 nM | concentration at 96 h [2]: 138 nM | concentration at 96 h [3]: 98.6 nM | concentration at 168 h [2]: 118 nM | concentration at 168 h [3]: 80 nM | concentration at 336 h [2]: 171 nM | concentration at 336 h [3]: 123 nM | concentration at 504 h [2]: 248 nM | concentration at 504 h [3]: 194 nM | concentration at 672 h [2]: 261 nM | concentration at 672 h [3]: 217 nM | concentration at 840 h [2]: 290 nM | concentration at 840 h [3]: 273 nM | concentration at 1008 h [2]: 239 nM | concentration at 1008 h [3]: 176 nM | concentration at 1344 h [2]: 305 nM | concentration at 1344 h [3]: 260 nM | concentration at 1680 h [2]: 261 nM | concentration at 1680 h [3]: 206 nM | concentration at 2016 h [2]: 201 nM | concentration at 2016 h [3]: 163 nM | concentration at 2352 h [2]: 162 nM | concentration at 2352 h [3]: 164 nM | concentration at 2688 h [2]: 173 nM | concentration at 2688 h [3]: 170 nM | concentration at 3024 h [2]: 131 nM | concentration at 3024 h [3]: 145 nM | concentration at 3360 h [2]: 129 nM | concentration at 3360 h [3]: 151 nM | concentration at 3696 h [2]: 107 nM | concentration at 3696 h [3]: 133 nM | concentration at 4032 h (400 mg/mL solution W (5.00% ethanol, 1.57% poloxamer 188), 4032 h, Mean n = 3): 97.5 nM | concentration at 4704 h (400 mg/mL solution W (5.00% ethanol, 1.57% poloxamer 188), 4704 h, Mean n = 3): 57.9 nM | concentration at 1 h [4]: 28.6 nM | concentration at 1 h [5]: 28.7 nM | concentration at 3 h [4]: 52.2 nM | concentration at 3 h [5]: 51.3 nM | concentration at 8 h [4]: 65.8 nM | concentration at 8 h [5]: 62.1 nM | concentration at 24 h [4]: 93.2 nM | concentration at 24 h [5]: 72.1 nM | concentration at 48 h [4]: 110 nM | concentration at 48 h [5]: 83 nM | concentration at 72 h [4]: 109 nM | concentration at 72 h [5]: 87.1 nM | concentration at 96 h [4]: 95.3 nM | concentration at 168 h [4]: 85.7 nM | concentration at 336 h [4]: 103 nM | concentration at 504 h [4]: 131 nM | concentration at 672 h [4]: 151 nM | concentration at 840 h [4]: 158 nM | concentration at 1008 h [4]: 162 nM | concentration at 1344 h [4]: 159 nM | concentration at 1680 h [4]: 132 nM | concentration at 2016 h [4]: 117 nM | concentration at 2352 h [4]: 118 nM | concentration at 2688 h [4]: 119 nM | concentration at 3024 h [4]: 105 nM | concentration at 3360 h [4]: 95.2 nM | concentration at 3696 h [4]: 90.4 nM | concentration at 1 h [6]: 41.7 nM | concentration at 3 h [6]: 70.3 nM | concentration at 8 h [6]: 85.9 nM | concentration at 24 h [6]: 144 nM | concentration at 48 h [6]: 165 nM | concentration at 72 h [6]: 163 nM | concentration at 96 h [6]: 147 nM | concentration at 168 h [6]: 135 nM | concentration at 336 h [6]: 169 nM | concentration at 504 h [6]: 166 nM | concentration at 672 h [6]: 172 nM | concentration at 672 h [7]: 163 nM | concentration at 840 h [6]: 174 nM | concentration at 1008 h [6]: 164 nM | concentration at 1008 h [7]: 137 nM | concentration at 1344 h [6]: 138 nM | concentration at 1344 h [7]: 113 nM | concentration at 1680 h [6]: 127 nM | concentration at 1680 h [7]: 108 nM | concentration at 2016 h [6]: 127 nM | concentration at 2016 h [7]: 111 nM | concentration at 2352 h [6]: 127 nM | concentration at 2352 h [7]: 101 nM | concentration at 2688 h [6]: 141 nM | concentration at 2688 h [7]: 118 nM | concentration at 3024 h [6]: 133 nM | concentration at 3024 h [7]: 110 nM | concentration at 3360 h [8]: 133 nM | concentration at 3360 h [9]: 109 nM | concentration at 3696 h [8]: 135 nM | concentration at 3696 h [9]: 91.2 nM | concentration at 1 h [10]: 46.8 nM | concentration at 3 h [10]: 77.6 nM | concentration at 3 h [11]: 89 nM | concentration at 8 h [10]: 96.2 nM | concentration at 8 h [11]: 115 nM | concentration at 24 h [10]: 184 nM | concentration at 24 h [11]: 164 nM | concentration at 48 h [10]: 209 nM | concentration at 48 h [11]: 209 nM | concentration at 72 h [10]: 199 nM | concentration at 72 h [11]: 207 nM | concentration at 96 h [10]: 187 nM | concentration at 96 h [11]: 193 nM | concentration at 168 h [10]: 176 nM | concentration at 168 h [11]: 204 nM | concentration at 336 h [10]: 233 nM | concentration at 336 h [11]: 269 nM | concentration at 504 h [10]: 270 nM | concentration at 504 h [11]: 311 nM | concentration at 672 h [10]: 270 nM | concentration at 672 h [11]: 312 nM | concentration at 840 h [10]: 294 nM | concentration at 840 h [11]: 361 nM | concentration at 1008 h [10]: 235 nM | concentration at 1008 h [11]: 209 nM | concentration at 1344 h [10]: 272 nM | concentration at 1344 h [11]: 314 nM | concentration at 1680 h [10]: 247 nM | concentration at 1680 h [11]: 206 nM | concentration at 2016 h [10]: 193 nM | concentration at 2016 h [11]: 161 nM | concentration at 2352 h [10]: 158 nM | concentration at 2352 h [11]: 111 nM
